The assay has as its system HeLa cells. In words: TAMRA-TCO comparative washout assay. It counts as cell-based. Conditions: 5 μM, 30 min incubation. From the text: While TCO-derivatives offer rapid labeling kinetics, a consideration for labeling by fluorophore-tagged TCOs has been the background fluorescence due to non-covalent cellular binding that can be ameliorated only by extended washout times. More hydrophilic oxo- and dioxo-trans-cyclooctenes with backbone oxygens offer improvements, but are difficult to synthesize and, for dioxo-TCO, display reduced Diels-Alder kinetics. As shown in FIGS. 5A-5C, the fluorescent conjugates TAM RA-TCO, TAMRA-oxo-TCO and TAMRA-a-TCO were prepared and compared their cellular washout times to unconjugated TAMRA. Thus, HeLa cells were incubated for 30 min with TAMRA-dyes, and cells were initially washed three times with DPBS, and then cell media was exchanged after 10, 40 and 120 minutes. After each wash, cells were imaged live by fluorescence microscopy with illumination at 531 nm and fixed-intensity across all samples. Widefield images of the cells after 3 washes are shown in FIG. 5B; images after the earlier and later washings are shown in FIG. 8. Background fluorescence was quantified by dividing total fluorescence by the number of cells in each image (FIG. 5C).
HeLa cells were seeded at 5×10^3 cells per well in a poly-L-lysine (0.1 mg/mL) coated 48-well plate and allowed to grow for 48 hours in Dulbecco's modified eagle medium (DMEM, Life Technologies) supplemented with 5% FBS (Life Technologies), 1 mM L-glutamine, and 1% penicillin/streptomycin (Life Technologies). Cells were then incubated with media containing 5 μM of TAMRA-TCO, TAMRA-oxo-TCO, or TAMRA-a-TCO 12 (1 mM stock solutions in DMSO, diluted twice into media) for 30 mins at 37° C. All wells were washed three times with DPBS before adding fresh media. Cells were imaged after 2 DPBS washes and again after the 3rd DPBS wash, then incubated for additional time intervals: 10 minutes, 40 minutes, and 2 hour. At each time point, the media was removed from the designated wells and replaced with fresh media before imaging. Images were taken with an EVOS M7000 and all images were taken with the same laser power and gain. Fluorescence intensity was calculated for each sample in 3 replicates using ImageJ and the fluorescence data was normalized with the cell count of each image.

Results on one compound are retold here after US20230331652A1, “TRANS-CYCLOOCTENES WITH HIGH REACTIVITY AND FAVORABLE PHYSIOCHEMICAL PROPERTIES” (University of Delaware, priority 2020, published 2023).

Molecules are shown by their SMILES.

With `CN(C)c1ccc2c(-c3ccc(C(=O)NCCCCCNC(=O)OC[C@@H]4CC/C=C/CCO4)cc3C(=O)[O-])c3ccc(=[N+](C)C)cc-3oc2c1` (stereo in doubt) [TAMRA-oxo-TCO, (S,E)-2-(6-(dimethylamino)-3-(dimethyliminio)-3H-xanthen-9-yl)-5-((5-((((3,4,7,8-tetrahydro-2H-oxocin-2-yl)methoxy)carbonyl)amino)pentyl)carbamoyl)benzoate, reference compound], the “background fluorescence after 3 washings” value (3 washes with DPBS) is recorded as “improved”. Moreover, the “background fluorescence / washout after 2 hours” value (media exchanges up to 2 hours) was “residual fluorescence”.
